1 compound from US20160193250A1, “CHORION-DERIVED MSCS CELLS AND CONDITIONED MEDIA AS INDUCER FOR ANGIOGENESIS APPLICATION FOR THE TREATMENT OF CARDIAC DEGENERATION” (CELLS FOR CELLS, priority 2013, published 2016) can be followed below.

The subject of one test is MSCs. Briefly: MSC morphology during cardiac induction with 5-aza. It counts as cell-based, human. The settings on record: MSCs treated with 5-aza. The text has this: In order to establish morphology changes occurred in MSCs treated with 5-aza, photographs were taken daily for later analysis. […] After 20 days, confluence in both conditions was quite similar and reached 100%. In some dishes, it was common to find a reduced percentage (10%) of cells with vacuoles inside them. On the other hand, it was also noted that a large percentage (approximately 70%) of cells adopted a rounded and flat morphology, while other presented a longish tubular morphology which, in some cases, were multi-core.
For induction, MSCs we incubated with DMEM, 2% FBS, 1% Pen/Strep, 1% L-glutamine, supplemented with 10 μM 5-zacitidine (Sigma, USA) during 24 hours, and kept in a humidified and thermo-regulated incubator at 37° C. and 5% CO2. Later, they were removed from the induction medium, cells were washed three times with PBS 1× adjusted to ph 7.4 (Life Technologies, USA), and cultured in a maintenance medium during 30 days, being renewed every three days. The control condition corresponded to cells submitted to DMEM 2% FBS with no 5-aza during 24 hours, and then cultured in maintenance medium during 30 days.

The subject of test [1] is genes involved in cardio-myogenesis (NKX2-5, GATA-4, MEF2C, MYH7B, GJA1, TNNT2). Briefly: Cardio-myogenic induction with 5-azacytidine, relative gene expression by RT-qPCR. In kind it is cell-based, human. The settings on record: all MSC sources treated with 5-aza, 30 days of culture after induction. The source says:
In order to assess chorion, decidua, gelatin of Wharton, and bone marrow MSCs cardio-myogenic potential, 3000 cells per cm^2 of each one of the MSCs were planted in biologic triplicate (3 different donors) in a plate of 6, leaving 3 bowls for induced condition and other 3 for control condition. This method was developed to obtain cells for assessment through RT-qPCR. However, in order to assess protein expression through indirect immunofluorescence (IFI), cells were planted on a […] circular glass cover placed on a 24-bowl plate, leaving 12 bowls for induced condition and 12 bowls for control condition. […]
The polymerase chain reaction in real time, preceded by reverse transcription (RT-qPCR), was based on quantification kinetics that allowed calculating the messenger RNA through the recording of PCR product forming in real time. This was the quantification, during the reaction exponential stage, of amplified PCR products and labeled with fluorochrome. In this work, a relative quantification of genes of interest was carried out, i.e. a gene of interest expression level is obtained compared to another one that keeps its expression constant and is called standardizing gene; therefore, in this thesis human gene B2M was selected as standardizing. […]

Molecules are shown by their SMILES.

In the case of `Nc1ncn([C@@H]2O[C@H](CO)[C@@H](O)[C@H]2O)c(=O)n1` [5-aza, 5-azacytidine], in the test with MSCs, the “percentage of cells with rounded and flat morphology” value is on record as “approximately 70%”. Also, the “percentage of cells with vacuoles inside them” value in the test on MSCs (in some dishes) worked out at 10%. The “relative expression of all genes associated to cardio-myogenesis compared to control” value in test [1] was “significant increase”.
